Test system: 282377-053-R-J1-PDC complex spheroids, viability
Test: Anticancer human tumor 282377-053-R-J1-PDC patient-derived colon adenocarcinoma cell line growth inhibition [GQUAD]
Conditions: for IC50: curve of first compound; for viability, T/C: stronger effect = lower value
In short: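 Viability of tumor cells grown as complex spheroids with endothelial and stromal cells, exposed to drug combinations. Top concentration at or near clinical Cmax (else 10 microM), diluted in half-log increments.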

[1] = second compound 0.0316 µM, first compound 0.0316 µM
[2] = second compound 0.0316 µM, first compound 0.1 µM
[3] = second compound 0.0316 µM, first compound 0.316 µM
[4] = second compound 0.0316 µM, first compound 1 µM
[5] = second compound 0.0316 µM, first compound 3.16 µM
[6] = second compound 0.0316 µM, first compound 10 µM
[7] = second compound 0.1 µM, first compound 0.0316 µM
[8] = second compound 0.1 µM, first compound 0.1 µM
[9] = second compound 0.1 µM, first compound 0.316 µM
[10] = second compound 0.1 µM, first compound 1 µM
[11] = second compound 0.1 µM, first compound 3.16 µM
[12] = second compound 0.1 µM, first compound 10 µM
[13] = second compound 0.316 µM, first compound 0.0316 µM
[14] = second compound 0.316 µM, first compound 0.1 µM
[15] = second compound 0.316 µM, first compound 0.316 µM
[16] = second compound 0.316 µM, first compound 1 µM
[17] = second compound 0.316 µM, first compound 3.16 µM
[18] = second compound 0.316 µM, first compound 10 µM
[19] = second compound 1 µM, first compound 0.0316 µM
[20] = second compound 1 µM, first compound 0.1 µM
[21] = second compound 1 µM, first compound 0.316 µM
[22] = second compound 1 µM, first compound 1 µM
[23] = second compound 1 µM, first compound 3.16 µM
[24] = second compound 1 µM, first compound 10 µM
[25] = second compound 3.16 µM, first compound 0.0316 µM
[26] = second compound 3.16 µM, first compound 0.1 µM
[27] = second compound 3.16 µM, first compound 0.316 µM
[28] = second compound 3.16 µM, first compound 1 µM
[29] = second compound 3.16 µM, first compound 3.16 µM
[30] = second compound 3.16 µM, first compound 10 µM
[31] = second compound 10 µM, first compound 0.0316 µM
[32] = second compound 10 µM, first compound 0.1 µM
[33] = second compound 10 µM, first compound 0.316 µM
[34] = second compound 10 µM, first compound 1 µM
[35] = second compound 10 µM, first compound 3.16 µM
[36] = second compound 10 µM, first compound 10 µM
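Note: spheroids exposed to compounds for 7 days before readout.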
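Throughout, for viability, T/C: percent of vehicle DMSO control viability with 100% = untreated-like growth.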

For `COc1cccc2c1C(=O)c1c(O)c3c(c(O)c1C2=O)CC(O)(C(=O)CO)CC3OC1CC(N)C(O)C(C)O1` (stereo unspecified) + CN(C)c1ccc(Nc2c3ccc(NC(=O)CCN4CCCC4)cc3nc3cc(NC(=O)CCN4CCCC4)ccc23)cc1, the IC50 (second compound 0.0316 µM) was 1530 nM, the IC50 (second compound 0.1 µM) was 1890 nM and the IC50 (second compound 0.316 µM) was 1950 nM. The IC50 (second compound 1 µM) was 2260 nM, the IC50 (second compound 3.16 µM) was 2060 nM and the IC50 (second compound 10 µM) was 2580 nM. The viability, T/C [1] was 114%, the viability, T/C [2] was 99% and the viability, T/C [3] was 92.8%. For the same compound, the viability, T/C [4] was 62.6%, the viability, T/C [5] was 27.7% and the viability, T/C [6] was 1.26%. The viability, T/C [7] was 104%, the viability, T/C [8] was 96.2% and the viability, T/C [9] was 109%. It also gave a viability, T/C [10] of 71.6%, a viability, T/C [11] of 31.1% and a viability, T/C [12] of 1.8%. It also gave a viability, T/C [13] of 89.4%, a viability, T/C [14] of 110% and a viability, T/C [15] of 98.6%. For the same compound, the viability, T/C [16] was 73.7%, the viability, T/C [17] was 32.4% and the viability, T/C [18] was 2.16%. For the same compound, the viability, T/C [19] was 85%, the viability, T/C [20] was 94.2% and the viability, T/C [21] was 106%. For the same compound, the viability, T/C [22] was 73.8%, the viability, T/C [23] was 39.5% and the viability, T/C [24] was 1.89%. The viability, T/C [25] was 97.8%, the viability, T/C [26] was 88.1% and the viability, T/C [27] was 96.5%. The viability, T/C [28] was 74.2%, the viability, T/C [29] was 35.2% and the viability, T/C [30] was 2.76%. For the same compound, the viability, T/C [31] was 97%, the viability, T/C [32] was 100% and the viability, T/C [33] was 105%. It also gave a viability, T/C [34] of 83.6%, a viability, T/C [35] of 42.9% and a viability, T/C [36] of 4.44%.
In the case of `Cc1cccc(N(C)C(=O)C2C(O)CCN2c2nc(C)cc(C(F)(F)F)c2C#N)c1` (stereo unspecified) + CN(C)c1ccc(Nc2c3ccc(NC(=O)CCN4CCCC4)cc3nc3cc(NC(=O)CCN4CCCC4)ccc23)cc1, the IC50 (second compound 0.0316 µM) is reported as > 10000 nM, the IC50 (second compound 0.1 µM) is reported as > 10000 nM and the IC50 (second compound 0.316 µM) is reported as > 10000 nM. For the same compound, the IC50 (second compound 1 µM) was > 10000 nM, the IC50 (second compound 3.16 µM) was > 10000 nM and the IC50 (second compound 10 µM) was > 10000 nM. It also gave a viability, T/C [1] of 110%, a viability, T/C [2] of 104% and a viability, T/C [3] of 93.3%. It also gave a viability, T/C [4] of 98.7%, a viability, T/C [5] of 78.2% and a viability, T/C [6] of 104%. For the same compound, the viability, T/C [7] was 105%, the viability, T/C [8] was 96.9% and the viability, T/C [9] was 103%. It also gave a viability, T/C [10] of 93.8%, a viability, T/C [11] of 96.3% and a viability, T/C [12] of 82.3%. It also gave a viability, T/C [13] of 101%, a viability, T/C [14] of 103% and a viability, T/C [15] of 84.5%. For the same compound, the viability, T/C [16] was 106%, the viability, T/C [17] was 90.2% and the viability, T/C [18] was 63.8%. For the same compound, the viability, T/C [19] was 100%, the viability, T/C [20] was 87.5% and the viability, T/C [21] was 90.5%. It also gave a viability, T/C [22] of 90.1%, a viability, T/C [23] of 94.6% and a viability, T/C [24] of 88.1%. The viability, T/C [25] was 94.2%, the viability, T/C [26] was 96.8% and the viability, T/C [27] was 96.7%. For the same compound, the viability, T/C [28] was 94.5%, the viability, T/C [29] was 128% and the viability, T/C [30] was 109%. For the same compound, the viability, T/C [31] was 91.8%, the viability, T/C [32] was 97% and the viability, T/C [33] was 110%. It also gave a viability, T/C [34] of 105%, a viability, T/C [35] of 122% and a viability, T/C [36] of 80%.
For `Cn1ncnc1[C@H]1c2n[nH]c(=O)c3cc(F)cc(c23)N[C@@H]1c1ccc(F)cc1` + CN(C)c1ccc(Nc2c3ccc(NC(=O)CCN4CCCC4)cc3nc3cc(NC(=O)CCN4CCCC4)ccc23)cc1, the IC50 (second compound 0.0316 µM) was > 316 nM, the IC50 (second compound 0.1 µM) was > 316 nM and the IC50 (second compound 0.316 µM) was > 316 nM. For the same compound, the IC50 (second compound 1 µM) was > 316 nM, the IC50 (second compound 3.16 µM) was > 316 nM and the IC50 (second compound 10 µM) was > 316 nM. The viability, T/C (second compound 0.0316 µM, first compound 0.000999 µM) was 96.8%, the viability, T/C (second compound 0.0316 µM, first compound 0.00316 µM) was 92.6% and the viability, T/C (second compound 0.0316 µM, first compound 0.00999 µM) was 101%. The viability, T/C [1] was 104%, the viability, T/C (second compound 0.0316 µM, first compound 0.0999 µM) was 112% and the viability, T/C [3] was 110%. For the same compound, the viability, T/C (second compound 0.1 µM, first compound 0.000999 µM) was 127%, the viability, T/C (second compound 0.1 µM, first compound 0.00316 µM) was 82.7% and the viability, T/C (second compound 0.1 µM, first compound 0.00999 µM) was 88.7%. It also gave a viability, T/C [7] of 105%, a viability, T/C (second compound 0.1 µM, first compound 0.0999 µM) of 101% and a viability, T/C [9] of 98.8%. For the same compound, the viability, T/C (second compound 0.316 µM, first compound 0.000999 µM) was 109%, the viability, T/C (second compound 0.316 µM, first compound 0.00316 µM) was 77.7% and the viability, T/C (second compound 0.316 µM, first compound 0.00999 µM) was 78.9%. It also gave a viability, T/C [13] of 89.3%, a viability, T/C (second compound 0.316 µM, first compound 0.0999 µM) of 94.3% and a viability, T/C [15] of 83.3%. The viability, T/C (second compound 1 µM, first compound 0.000999 µM) was 109%, the viability, T/C (second compound 1 µM, first compound 0.00316 µM) was 108% and the viability, T/C (second compound 1 µM, first compound 0.00999 µM) was 100%. The viability, T/C [19] was 94.9%, the viability, T/C (second compound 1 µM, first compound 0.0999 µM) was 107% and the viability, T/C [21] was 89.1%. For the same compound, the viability, T/C (second compound 3.16 µM, first compound 0.000999 µM) was 85.5%, the viability, T/C (second compound 3.16 µM, first compound 0.00316 µM) was 81% and the viability, T/C (second compound 3.16 µM, first compound 0.00999 µM) was 101%. For the same compound, the viability, T/C [25] was 90.8%, the viability, T/C (second compound 3.16 µM, first compound 0.0999 µM) was 92.8% and the viability, T/C [27] was 102%. It also gave a viability, T/C (second compound 10 µM, first compound 0.000999 µM) of 81.4%, a viability, T/C (second compound 10 µM, first compound 0.00316 µM) of 84.8% and a viability, T/C (second compound 10 µM, first compound 0.00999 µM) of 91.6%. The viability, T/C [31] was 106%, the viability, T/C (second compound 10 µM, first compound 0.0999 µM) was 101% and the viability, T/C [33] was 101%.

Reference: PubChem BioAssay AID2060501 (Molecular Pharmacology Branch, DTP, NCI, 2025)
